{
  "source": "patent US20150366836A1",
  "about": "“METHOD AND PHARMACEUTICAL COMPOSITION FOR TREATING COLORECTAL CANCER” (National Dong Hua University, priority 2014, published 2015)",
  "assay_type_in_all_cases": "cell-based",
  "key": {"[1]": {"test_system": "Caco2 cells", "assay": "MTT assay cell viability, Caco2 cells", "experimental": "(§1) Two cell lines were used in this study, Caco2 cells and HT-29 cells. Both of them are colorectal cancer cells. Caco2 cells and HT-29 cells were maintained in DMEM (or RPMI) supplemented with 20% or 10% fetal bovine serum (FBS; GIBCO), pH 7.4 at 37° C. with continuous circulation of 5% CO2 incubator. The medium was changed every 2 days and the cells were trypsinized using trypsin/EDTA when reaching 80%-90% confluence.\n(§2) In this example, the effects of HCD, PG, and 5-FU on the viability of Caco2 cells and HT-29 cells were examined. The MTT assay was employed for this purpose. The MTT (3-(4-,5-dimethylthiazol-2-yl)-2,5-diphenyltetrazolium bromide) assay is a common colorimetric method in the field for cell viability analysis. MTT (yellow tetrazolium salt) is reduced to a purple formazan by living cells and detection to the purple formazan can be calculated as the cell viability.\n(§3) Briefly, cells (Caco2 or HT-29) were seeded in 96-well plate (7×10^3 cell per well) and incubated overnight (37° C., 5% CO2).\n(§4) On the other hand, in the pretreatment analysis, cells (Caco2 or HT-29) were seeded in 96-well plate (7×10^3 cell per well) and incubated overnight (37° C., 5% CO2). In according to the treatments listed in the Table 1, Cells were pre-treated by HCD or PG for 6, 12, 24, 36, or 48 hr and then were treated by 5-FU for additional 24 hr."}, "[2]": {"test_system": "HT-29 cells", "assay": "MTT assay cell viability, HT-29 cells", "experimental": "as §1, §2, §3, §4"}, "[3]": {"test_system": "Caco2 cells", "assay": "Cell cycle analysis by flow cytometer (PI staining), Caco2 cells", "experimental": "(§5) The results of Example 2 in cell viability hinted the effects of HCD, PG, and 5-FU on arresting cell cycle. In this example, the phase of cell cycle of Caco2 and HT-29 cells after the treatment listed in Table 1 was determined by flow cytometer. Briefly, 7×10^4 cells per well were inoculated in 12-wells plate and incubated overnight at 37° C., 5% CO2. Then, cells were treated according to the treatment listed in Table 1 by indicated time period. After treatment, cells were harvested by trypsin and fixed with 70% ethanol at −20° C. for at least 3 hr. The cells were washed in cold PBS twice and then incubated with 1 mL (v/v) staining solution (20 μg/mL propidium iodide (PI), 0.1% Triton X-100, 0.2 mg/mL Rnase) at 37° C. for 30 minutes. Lastly, cells were analyzed by flow cytometer (Cytomics™ FC500, Backman, Fullerton, Calif., USA). Data from 10,000 cells were collected for each experimental group."}, "[4]": {"test_system": "HT-29 cells", "assay": "Cell cycle analysis by flow cytometer (PI staining), HT-29 cells", "experimental": "as §5"}},
  "data": [
    {"smiles": "CCCCCC1=C/C(=C/c2[nH]c(-c3ccc[nH]3)cc2OC)N=C1C", "note": "[PG, Prodigiosin]", "values": [
      {"measurement": "effect of pre-treating on efficacy of 5-FU in the subsequent treatment (MTT)", "setting": "[1]; Caco2, pre-treatment 6-48 hr, then 5-FU 2 μM 24 hr", "value": "significantly enhanced the efficacy of 5-FU"},
      {"measurement": "IC50", "setting": "[1]; Homo sapiens, Caco-2, Caco2 cells, 48 hr treatment", "value": 2, "unit": "µM"},
      {"measurement": "effect of pre-treating on efficacy of 5-FU in the subsequent treatment (MTT)", "setting": "[2]; HT-29, pre-treatment 6-48 hr, then 5-FU 2 μM 24 hr", "value": "significantly enhanced the efficacy of 5-FU"},
      {"measurement": "IC50", "setting": "[2]; Homo sapiens, HT-29 cells, 36 hr treatment", "value": 0.5, "unit": "µM"},
      {"measurement": "G0/G1 (%)", "setting": "[3]; Caco2, 0.5 μM, 36 hr", "value": "51.3 ± 3.8", "unit": "%"},
      {"measurement": "G2/M (%)", "setting": "[3]; Caco2, 0.5 μM, 36 hr", "value": "14.93 ± 4.27", "unit": "%"},
      {"measurement": "S (%)", "setting": "[3]; Caco2, 0.5 μM, 36 hr", "value": "12.97 ± 0.49", "unit": "%"},
      {"measurement": "Sub G1 (%)", "setting": "[3]; Caco2, 0.5 μM, 36 hr", "value": "18.67 ± 2.06", "unit": "%"},
      {"measurement": "G0/G1 (%)", "setting": "[3]; Caco2, 0.5 μM, 48 hr", "value": "53.43 ± 13.12", "unit": "%"},
      {"measurement": "G2/M (%)", "setting": "[3]; Caco2, 0.5 μM, 48 hr", "value": "15.9 ± 8.23", "unit": "%"},
      {"measurement": "S (%)", "setting": "[3]; Caco2, 0.5 μM, 48 hr", "value": "18.17 ± 7.05", "unit": "%"},
      {"measurement": "Sub G1 (%)", "setting": "[3]; Caco2, 0.5 μM, 48 hr", "value": "11.67 ± 4.07", "unit": "%"},
      {"measurement": "G0/G1 (%)", "setting": "[3]; Caco2, 2 μM, 36 hr", "value": "44.53 ± 7.05", "unit": "%"},
      {"measurement": "G2/M (%)", "setting": "[3]; Caco2, 2 μM, 36 hr", "value": "17.33 ± 1.95", "unit": "%"},
      {"measurement": "S (%)", "setting": "[3]; Caco2, 2 μM, 36 hr", "value": "14.33 ± 1.76", "unit": "%"},
      {"measurement": "Sub G1 (%)", "setting": "[3]; Caco2, 2 μM, 36 hr", "value": "21.47 ± 3.41", "unit": "%"},
      {"measurement": "G0/G1 (%)", "setting": "[3]; Caco2, 2 μM, 48 hr", "value": "49.87 ± 9.56", "unit": "%"},
      {"measurement": "G2/M (%)", "setting": "[3]; Caco2, 2 μM, 48 hr", "value": "12.43 ± 4.48", "unit": "%"},
      {"measurement": "S (%)", "setting": "[3]; Caco2, 2 μM, 48 hr", "value": "15 ± 6.14", "unit": "%"},
      {"measurement": "Sub G1 (%)", "setting": "[3]; Caco2, 2 μM, 48 hr", "value": "18.77 ± 7.49", "unit": "%"},
      {"measurement": "G0/G1 (%)", "setting": "[3]; Caco2, 5 μM, 36 hr", "value": "37.9 ± 6.04", "unit": "%"},
      {"measurement": "G2/M (%)", "setting": "[3]; Caco2, 5 μM, 36 hr", "value": "15.43 ± 7.86", "unit": "%"},
      {"measurement": "S (%)", "setting": "[3]; Caco2, 5 μM, 36 hr", "value": "14.23 ± 3.12", "unit": "%"},
      {"measurement": "Sub G1 (%)", "setting": "[3]; Caco2, 5 μM, 36 hr", "value": "30.07 ± 6.7", "unit": "%"},
      {"measurement": "G0/G1 (%)", "setting": "[3]; Caco2, 5 μM, 48 hr", "value": "45.83 ± 3.3", "unit": "%"},
      {"measurement": "G2/M (%)", "setting": "[3]; Caco2, 5 μM, 48 hr", "value": "8.7 ± 2.07", "unit": "%"},
      {"measurement": "S (%)", "setting": "[3]; Caco2, 5 μM, 48 hr", "value": "11.67 ± 2", "unit": "%"},
      {"measurement": "Sub G1 (%)", "setting": "[3]; Caco2, 5 μM, 48 hr", "value": "33.53 ± 6.73", "unit": "%"},
      {"measurement": "G2/M phase after pre-treatment then 5-FU (in words)", "setting": "[3]; Caco2, 12 and 24 hr pretreatment of 1 or 2 μM, then 5-FU", "value": "decreased"},
      {"measurement": "G0/G1 (%)", "setting": "[4]; HT-29, 0.5 μM, 24 hr", "value": "65.3 ± 5.66", "unit": "%"},
      {"measurement": "G2/M (%)", "setting": "[4]; HT-29, 0.5 μM, 24 hr", "value": "11.65 ± 0.78", "unit": "%"},
      {"measurement": "S (%)", "setting": "[4]; HT-29, 0.5 μM, 24 hr", "value": "5.9 ± 1.13", "unit": "%"},
      {"measurement": "Sub G1 (%)", "setting": "[4]; HT-29, 0.5 μM, 24 hr", "value": "14.65 ± 4.03", "unit": "%"},
      {"measurement": "G0/G1 (%)", "setting": "[4]; HT-29, 0.5 μM, 36 hr", "value": "48.28 ± 6.29", "unit": "%"},
      {"measurement": "G2/M (%)", "setting": "[4]; HT-29, 0.5 μM, 36 hr", "value": "5.8 ± 0.84", "unit": "%"},
      {"measurement": "S (%)", "setting": "[4]; HT-29, 0.5 μM, 36 hr", "value": "5.8 ± 0.68", "unit": "%"},
      {"measurement": "Sub G1 (%)", "setting": "[4]; HT-29, 0.5 μM, 36 hr", "value": "37.88 ± 7.42", "unit": "%"},
      {"measurement": "G0/G1 (%)", "setting": "[4]; HT-29, 2 μM, 24 hr", "value": "54.35 ± 5.02", "unit": "%"},
      {"measurement": "G2/M (%)", "setting": "[4]; HT-29, 2 μM, 24 hr", "value": "12.35 ± 2.33", "unit": "%"},
      {"measurement": "S (%)", "setting": "[4]; HT-29, 2 μM, 24 hr", "value": "9.85 ± 1.2", "unit": "%"},
      {"measurement": "Sub G1 (%)", "setting": "[4]; HT-29, 2 μM, 24 hr", "value": "20.05 ± 5.87", "unit": "%"},
      {"measurement": "G0/G1 (%)", "setting": "[4]; HT-29, 2 μM, 36 hr", "value": "29.15 ± 3.18", "unit": "%"},
      {"measurement": "G2/M (%)", "setting": "[4]; HT-29, 2 μM, 36 hr", "value": "14.4 ± 0.71", "unit": "%"},
      {"measurement": "S (%)", "setting": "[4]; HT-29, 2 μM, 36 hr", "value": "12.3 ± 1.13", "unit": "%"},
      {"measurement": "Sub G1 (%)", "setting": "[4]; HT-29, 2 μM, 36 hr", "value": "40.25 ± 3.32", "unit": "%"},
      {"measurement": "G0/G1 (%)", "setting": "[4]; HT-29, 5 μM, 24 hr", "value": "49.8 ± 7.07", "unit": "%"},
      {"measurement": "G2/M (%)", "setting": "[4]; HT-29, 5 μM, 24 hr", "value": "13.25 ± 0.21", "unit": "%"},
      {"measurement": "S (%)", "setting": "[4]; HT-29, 5 μM, 24 hr", "value": "12.9 ± 0", "unit": "%"},
      {"measurement": "Sub G1 (%)", "setting": "[4]; HT-29, 5 μM, 24 hr", "value": "19.6 ± 7.95", "unit": "%"},
      {"measurement": "G0/G1 (%)", "setting": "[4]; HT-29, 5 μM, 36 hr", "value": "27.85 ± 1.06", "unit": "%"},
      {"measurement": "G2/M (%)", "setting": "[4]; HT-29, 5 μM, 36 hr", "value": "3.2 ± 0.85", "unit": "%"},
      {"measurement": "S (%)", "setting": "[4]; HT-29, 5 μM, 36 hr", "value": "5.9 ± 0.42", "unit": "%"},
      {"measurement": "Sub G1 (%)", "setting": "[4]; HT-29, 5 μM, 36 hr", "value": "61.85 ± 2.47", "unit": "%"},
      {"measurement": "cell cycle phases after pre-treatment then 5-FU (in words)", "setting": "[4]; HT-29, pre-treatment, then 5-FU", "value": "increase of sub G1 phase and decrease of G2/M phase"}
    ]}
  ]
}
